# From US8426169B2, “Glycosylate derivatives of mithramycin, method of preparation and uses thereof” (University of Kentucky Research Foundation, priority 2007, dated 2013)
# Where two headings read alike, the source gives them in different places.
# Experiments:
# Assay type in all cases: cell-based
# HT29 (colon) = test: SRB colorimetric cell growth and viability assay, HT29; details: read-out: GI50, concentration at which the compound assayed inhibits 50% of the cell growth compared to non-treated cells
# MDA-MB-231 (breast) = test: SRB colorimetric cell growth and viability assay, MDA-MB-231; details: 48 hours of exposure, read-out: GI50, concentration at which the compound assayed inhibits 50% of the cell growth compared to non-treated cells
# A549 (lung) = test: SRB colorimetric cell growth and viability assay, A549; details: 48 hours of exposure, read-out: GI50, concentration at which the compound assayed inhibits 50% of the cell growth compared to non-treated cells
# [1] = Homo sapiens, HT-29, 48 hours of exposure
Molecule,GI50 (HT29 (colon); 48 hours of exposure) [µM],GI50 (MDA-MB-231 (breast)) [µM],GI50 (A549 (lung)) [µM],GI50 (HT29 (colon); [1]) [µM],GI50 (MDA-MB-231 (breast); Homo sapiens) [µM],GI50 (A549 (lung); Homo sapiens) [µM]
6-dediolivosyl-6-β-D-amicetosyl-deoliosyl-3C-β-D-olivosyl-MTM [formula XXI],0.94,0.47,0.44,–,–,–
6-dediolivosyl-6-β-D-amicetosyl-deoliosyl-demycarosyl-3C-β-D-boivinosyl-MTM [formula XVIII],2.01,0.4,0.75,–,–,–
6-dediolivosyl-6-β-D-amicetosyl-deoliosyl-demycarosyl-3C-β-D-olivosyl-3D-β-D-digitoxosyl-MTM [formula XX],> 10,> 10,> 10,–,–,–
"CO[C@H](C(=O)[C@@H](O)[C@@H](C)O)[C@@H]1Cc2cc3cc(O[C@H]4C[C@@H](O[C@H]5C[C@@H](O)[C@H](O)C(C)O5)[C@H](O)C(C)O4)c(C)c(O)c3c(O)c2C(=O)[C@H]1O[C@H]1C[C@@H](O[C@H]2C[C@H](O[C@H]3C[C@](C)(O)[C@H](O)C(C)O3)[C@@H](O)C(C)O2)[C@H](O)C(C)O1 (stereo partly drawn) [formula IX, deoliosyl-3C-α-L-digitoxosyl-MTM]",–,–,–,3.87,1.94,2.67
CO[C@H](C(=O)[C@@H](O)[C@@H](C)O)[C@@H]1Cc2cc3cc(O[C@H]4C[C@@H](O[C@H]5C[C@@H](O)[C@H](O)C(C)O5)[C@H](O)C(C)O4)c(C)c(O)c3c(O)c2C(=O)[C@H]1O[C@H]1C[C@@H](O[C@H]2C[C@@H](O[C@H]3C[C@@H](O)[C@H](O)C(C)O3)[C@@H](O)C(C)O2)[C@H](O)C(C)O1 (stereo partly drawn) [formula VIII],–,–,–,0.27,0.23,0.19
"CO[C@H](C(=O)[C@@H](O)[C@@H](C)O)[C@@H]1Cc2cc3cc(O[C@H]4C[C@@H](O[C@H]5C[C@@H](O)[C@H](O)C(C)O5)[C@H](O)C(C)O4)c(C)c(O)c3c(O)c2C(=O)[C@H]1O[C@H]1C[C@@H](O[C@H]2C[C@](C)(O)[C@H](O)C(C)O2)[C@H](O)C(C)O1 (stereo partly drawn) [formula X, deoliosyl-3C-β-D-mycarosyl-MTM]",–,–,–,0.93,0.37,0.48
"CO[C@H](C(=O)[C@@H](O)[C@@H](C)O)[C@@H]1Cc2cc3cc(O[C@H]4C[C@@H](O)[C@H](O)C(C)O4)c(C)c(O)c3c(O)c2C(=O)[C@H]1O[C@H]1C[C@@H](O[C@H]2C[C@@H](O[C@H]3C[C@](C)(O)[C@H](O)C(C)O3)[C@@H](O)C(C)O2)[C@H](O)C(C)O1 (stereo partly drawn) [formula XI, 3A-deolivosyl-MTM]",–,–,–,0.71,0.45,0.75
"CO[C@H](C(=O)[C@@H](O)[C@@H](C)O)[C@@H]1Cc2cc3cc(O[C@H]4C[C@@H](O[C@H]5C[C@@H](O)[C@H](O)C(C)O5)[C@H](O)C(C)O4)c(C)c(O)c3c(O)c2C(=O)[C@H]1O[C@H]1C[C@@H](O[C@H]2C[C@@H](O)[C@@H](O)C(C)O2)[C@H](O)C(C)O1 (stereo partly drawn) [formula XII, demycarosyl-MTM]",–,–,–,> 10,1.28,1.81
CO[C@H](C(=O)[C@@H](O)[C@@H](C)O)[C@@H]1Cc2cc3cc(O[C@H]4CC[C@H](O)C(C)O4)c(C)c(O)c3c(O)c2C(=O)[C@H]1O[C@H]1C[C@@H](O[C@H]2C[C@@H](O[C@H]3C[C@](C)(O)[C@H](O)C(C)O3)[C@@H](O)C(C)O2)[C@H](O)C(C)O1 (stereo partly drawn) [formula XIII],–,–,–,3.19,1.38,1.49
deoliosyl-demycarosyl-3C-β-D-boivinosyl-MTM [formula XVII],> 10,3.72,> 10,–,–,–
deoliosyl-demycarosyl-3C-β-D-olivosyl-3D-β-D-digitoxosyl-MTM [formula XIX],5.98,0.69,0.91,–,–,–
